Experimental data taken from ChEMBL document CHEMBL6109113, “Design, synthesis, and biological evaluation of novel PROTACs compounds with good ERα degradation ability” (Bioorg Med Chem, 2025).
Blank lines part the entries; values can stand above or below the molecule they belong to. Active and inactive are the calls of the source. The calls are words filed in the database; no cut-off is given here.

Legend:
[1] = system: MCF7; assay: Antiproliferative activity against human MCF7 cells assessed as reduction in cell viability measured after 7 days by celltiter-glo luminescence assay; format: functional, cell-based; details: for IC50: MCF7, 168 h; for Activity: time 7.0 day
[2] = system: MCF7; assay: Protac activity at VHL/ER in human MCF7 cells assessed as induction of ER degradation at 1 uM measured after 24 hrs by Western blot analysis; format: cell-based
[3] = target: T1, Protein cereblon/Estrogen receptor (Homo sapiens, UniProt P03372+Q96SW2); assay: Protac activity at CRBN/ER in human MCF7 cells assessed as induction of ER degradation measured after 24 hrs by Western blot analysis; format: cell-based
[4] = Cmax in CD-1 mouse at 2 mg/kg, ip by LC-MS/MS analysis; format: ADME, organism-based; details: in vivo
[5] = Tmax in CD-1 mouse at 2 mg/kg, ip by LC-MS/MS analysis; format: ADME, organism-based; details: in vivo
[6] = target: T1, Protein cereblon/Estrogen receptor; assay: Protac activity at CRBN/ER in human MCF7 cells assessed as induction of ER degradation at 1 uM measured after 24 hrs by Western blot analysis; format: cell-based
Target sequence in this assay (P03372 whole entry, looked up): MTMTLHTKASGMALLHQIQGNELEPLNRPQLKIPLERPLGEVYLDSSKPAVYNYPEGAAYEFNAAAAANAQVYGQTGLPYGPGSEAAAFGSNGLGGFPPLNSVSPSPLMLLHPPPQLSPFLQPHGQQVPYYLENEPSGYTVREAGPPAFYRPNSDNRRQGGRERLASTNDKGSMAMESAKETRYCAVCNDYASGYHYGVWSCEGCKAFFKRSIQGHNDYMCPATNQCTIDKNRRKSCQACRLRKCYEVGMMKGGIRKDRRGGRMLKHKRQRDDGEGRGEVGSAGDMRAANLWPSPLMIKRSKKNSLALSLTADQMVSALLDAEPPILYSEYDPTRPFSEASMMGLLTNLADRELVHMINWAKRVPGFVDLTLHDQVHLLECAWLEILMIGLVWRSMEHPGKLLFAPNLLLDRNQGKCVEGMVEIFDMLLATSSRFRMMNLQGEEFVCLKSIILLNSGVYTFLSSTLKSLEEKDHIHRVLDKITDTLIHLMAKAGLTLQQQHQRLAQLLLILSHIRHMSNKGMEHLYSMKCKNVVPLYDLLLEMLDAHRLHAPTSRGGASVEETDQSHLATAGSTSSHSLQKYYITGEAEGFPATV
Target sequence in this assay (Q96SW2 whole entry, looked up): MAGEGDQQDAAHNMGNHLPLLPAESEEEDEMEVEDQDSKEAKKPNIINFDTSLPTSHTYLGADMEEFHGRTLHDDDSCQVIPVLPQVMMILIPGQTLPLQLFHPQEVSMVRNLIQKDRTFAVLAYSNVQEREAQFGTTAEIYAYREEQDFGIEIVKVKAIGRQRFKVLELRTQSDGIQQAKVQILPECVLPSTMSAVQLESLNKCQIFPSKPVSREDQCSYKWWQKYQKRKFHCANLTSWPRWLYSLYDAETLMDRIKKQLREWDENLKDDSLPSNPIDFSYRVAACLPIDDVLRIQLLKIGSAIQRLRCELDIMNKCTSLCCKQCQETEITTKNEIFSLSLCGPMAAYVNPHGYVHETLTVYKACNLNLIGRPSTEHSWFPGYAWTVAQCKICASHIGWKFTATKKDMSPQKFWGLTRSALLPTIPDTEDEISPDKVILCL

[7] = Toxicity in CD-1 mouse assessed as adverse effect at 2 mg/kg, ip; format: organism-based; details: in vivo
[8] = Observed apparent […] clearance in CD-1 mouse at 2 mg/kg, ip by LC-MS/MS analysis; format: ADME, organism-based; details: in vivo
[9] = Half life in CD-1 mouse at 2 mg/kg, ip by LC-MS/MS analysis; format: ADME, organism-based; details: in vivo
[10] = target: T1, Protein cereblon/Estrogen receptor; assay: Protac activity at CRBN/ER in human MCF7 cells assessed as induction of ER degradation at 10 uM measured after 24 hrs by Western blot analysis; format: cell-based
Target sequence in this assay (P03372 whole entry, looked up): as the sequence (P03372 whole entry, looked up) above
Target sequence in this assay (Q96SW2 whole entry, looked up): as the sequence (Q96SW2 whole entry, looked up) above

IC50 [1]: 80.2 nM
Compound: COC(=O)c1ccc2c(c1)CCCC(c1ccc(Cl)cc1Cl)=C2c1ccc(OC2CCN(CCCNC(=O)CN3CCN(C(=O)CNc4cccc5c4CN(C4CCC(=O)NC4=O)C5=O)CC3)C2)cc1 (centres undefined)
Activity [1]: Dose-dependent-effect

Compound: Cc1ncsc1-c1ccc([C@H](C)NC(=O)[C@@H]2C[C@@H](O)CN2C(=O)[C@@H](NCC2CCN(c3ccc(C4=C(c5ccc(Cl)cc5Cl)CCCc5cc(C(=O)O)ccc54)cc3)CC2)C(C)(C)C)cc1
Activity [2]: Not active; Degradation Ability Was Poorer When Compared With Compounds Whose E3 Ligase Ligand Was Crbn

Activity [3]: Dose-dependent-effect
DC50 [3]: 95 nM
Cmax [4]: 677 ng/mL
Tmax [5]: 0.83 h
Activity [6]: Active
IC50 [1]: 30.2 nM
CL/F [8]: 25.8 mL/min/kg
half-life [9]: 11.2 h
Activity [10]: inactive
Compound: COC(=O)c1ccc2c(c1)CCCC(c1ccc(Cl)cc1Cl)=C2c1ccc(N2CCN(CC3CCN(CC4CCN(C(=O)CNc5ccc6c(c5)C(=O)N(C5CCC(=O)NC5=O)C6)CC4)CC3)CC2)cc1 (centres undefined)
Activity [7]: Non-toxic
Activity [1]: Dose-dependent-effect

IC50 [1]: 772 nM
Compound: COC(=O)c1ccc2c(c1)CCCC(c1ccc(Cl)cc1Cl)=C2c1ccc(OC2CCN(CCCNC(=O)C3CCN(C4CCN(C(=O)CNc5cccc6c5CN(C5CCC(=O)NC5=O)C6=O)CC4)CC3)C2)cc1 (centres undefined)
Activity [1]: Dose-dependent-effect

Compound: C[C@]12CC[C@@H]3c4ccc(O)cc4C[C@@H](CCCCCCCCC[S+]([O-])CCCC(F)(F)C(F)(F)F)[C@H]3[C@@H]1CC[C@@H]2O (some centres undefined) [FULVESTRANT]
Cmax [4]: 237 ng/mL
Tmax [5]: 0.83 h
IC50 [1]: < 0.5 nM
CL/F [8]: 45.8 mL/min/kg
half-life [9]: 1.47 h

Compound: COC(=O)c1ccc2c(c1)CCCC(c1ccc(Cl)cc1Cl)=C2c1ccc(N2CCC(CN[C@H](C(=O)N3C[C@H](O)C[C@H]3C(=O)N[C@@H](C)c3ccc(-c4scnc4C)cc3)C(C)(C)C)CC2)cc1
Activity [2]: Not active; Degradation Ability Was Poorer When Compared With Compounds Whose E3 Ligase Ligand Was Crbn

Compound: COC(=O)c1ccc2c(c1)CCCC(c1ccc(Cl)cc1Cl)=C2c1ccc(OC2CCN(CCCN[C@H](C(=O)N3C[C@H](O)C[C@H]3C(=O)N[C@@H](C)c3ccc(-c4scnc4C)cc3)C(C)(C)C)C2)cc1 (some centres undefined)
Activity [2]: Not active; Degradation Ability Was Poorer When Compared With Compounds Whose E3 Ligase Ligand Was Crbn

Activity [6]: Active
Compound: COC(=O)c1ccc2c(c1)CCCC(c1ccc(Cl)cc1Cl)=C2c1ccc(N2CCC(CNCCOCCCOCCCOCCNC(=O)COc3ccc4c(c3)C(=O)N(C3CCC(=O)NC3=O)C4=O)CC2)cc1 (centres undefined)
